Drawing on ChEMBL document CHEMBL5291721, “A preclinical secondary pharmacology resource illuminates target-adverse drug reaction associations of marketed drugs” (Nat Commun, 2023), this text covers AC50 for 10 compounds.

Assay [1] deals with T1, 5-hydroxytryptamine receptor 3A (Homo sapiens, UniProt P46098).
T1 sequence (P46098 whole entry): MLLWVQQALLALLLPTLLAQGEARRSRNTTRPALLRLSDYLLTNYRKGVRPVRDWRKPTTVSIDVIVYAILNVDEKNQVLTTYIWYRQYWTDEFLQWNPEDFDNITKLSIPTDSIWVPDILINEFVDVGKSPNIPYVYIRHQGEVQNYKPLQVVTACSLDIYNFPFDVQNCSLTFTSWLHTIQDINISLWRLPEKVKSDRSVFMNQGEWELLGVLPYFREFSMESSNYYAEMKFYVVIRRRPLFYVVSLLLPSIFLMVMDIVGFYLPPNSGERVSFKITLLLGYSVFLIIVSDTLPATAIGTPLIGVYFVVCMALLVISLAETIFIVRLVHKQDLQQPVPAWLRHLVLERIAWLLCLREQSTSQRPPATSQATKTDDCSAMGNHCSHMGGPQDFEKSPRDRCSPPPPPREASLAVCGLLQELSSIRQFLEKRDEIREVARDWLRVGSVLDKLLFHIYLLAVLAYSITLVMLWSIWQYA
The format is functional.

The target of assay [2] is T2, 5-hydroxytryptamine receptor 1A (Homo sapiens, UniProt P08908).
T2 sequence (P08908 whole entry): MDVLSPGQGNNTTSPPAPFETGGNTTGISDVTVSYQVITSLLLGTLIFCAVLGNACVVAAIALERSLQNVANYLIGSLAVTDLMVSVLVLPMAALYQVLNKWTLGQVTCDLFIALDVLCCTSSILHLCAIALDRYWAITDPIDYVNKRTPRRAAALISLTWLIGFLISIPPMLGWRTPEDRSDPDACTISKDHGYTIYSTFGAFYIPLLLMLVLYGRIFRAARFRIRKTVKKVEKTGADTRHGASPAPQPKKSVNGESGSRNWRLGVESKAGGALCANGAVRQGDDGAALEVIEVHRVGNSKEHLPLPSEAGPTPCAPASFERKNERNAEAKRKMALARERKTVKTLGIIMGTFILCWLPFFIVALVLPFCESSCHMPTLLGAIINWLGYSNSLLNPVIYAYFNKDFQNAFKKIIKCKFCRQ
It is filed as functional, cell-based.

Assay [3] concerns the target Adenosine receptor A2a (Homo sapiens, UniProt P29274).
In assay [4] the target is T3, Alpha-2C adrenergic receptor (Homo sapiens, UniProt P18825).
T3 sequence (P18825 whole entry): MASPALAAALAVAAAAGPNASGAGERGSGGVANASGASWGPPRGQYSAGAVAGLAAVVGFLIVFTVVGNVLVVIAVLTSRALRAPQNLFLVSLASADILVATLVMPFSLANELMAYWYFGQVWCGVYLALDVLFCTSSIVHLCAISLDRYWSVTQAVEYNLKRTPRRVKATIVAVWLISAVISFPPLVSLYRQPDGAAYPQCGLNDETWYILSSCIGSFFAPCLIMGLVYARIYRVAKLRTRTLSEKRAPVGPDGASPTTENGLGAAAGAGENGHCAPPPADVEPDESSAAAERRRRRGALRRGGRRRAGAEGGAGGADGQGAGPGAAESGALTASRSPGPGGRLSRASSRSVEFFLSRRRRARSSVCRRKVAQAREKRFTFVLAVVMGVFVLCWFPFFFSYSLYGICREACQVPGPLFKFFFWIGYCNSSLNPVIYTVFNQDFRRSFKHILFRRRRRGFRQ
The format is functional.

The target of assay [5] is T4, Adenosine receptor A1 (Homo sapiens, UniProt P30542).
T4 sequence (P30542 whole entry): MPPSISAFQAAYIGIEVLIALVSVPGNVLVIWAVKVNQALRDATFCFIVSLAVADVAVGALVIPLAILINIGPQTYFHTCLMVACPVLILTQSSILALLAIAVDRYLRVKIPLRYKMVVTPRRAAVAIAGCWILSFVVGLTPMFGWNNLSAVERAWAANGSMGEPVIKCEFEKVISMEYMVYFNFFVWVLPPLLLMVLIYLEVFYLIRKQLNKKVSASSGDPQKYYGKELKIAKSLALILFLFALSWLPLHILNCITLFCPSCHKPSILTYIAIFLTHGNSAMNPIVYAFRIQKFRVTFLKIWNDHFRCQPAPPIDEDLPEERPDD

Assay [6] concerns the target 3',5'-cyclic-AMP phosphodiesterase 4D (Homo sapiens, UniProt Q08499). It is filed as functional.
Assay [7] has as its target Delta-type opioid receptor (Homo sapiens, UniProt P41143).
The target in assay [8] is Sodium-dependent noradrenaline transporter (Homo sapiens, UniProt P23975).
The target of assay [9] is Melanocortin receptor 3 (Homo sapiens, UniProt P41968).
In assay [10] the target is D(1A) dopamine receptor (Homo sapiens, UniProt P21728). The format is functional, cell-based.
Assay [11] addresses 5-hydroxytryptamine receptor 2B (Homo sapiens, UniProt P41595). It is filed as functional, cell-based.
The target in assay [12] is Bile salt export pump (Homo sapiens, UniProt O95342). The format is functional.
Assay [13] has as its target T5, Alpha-2A adrenergic receptor (Homo sapiens, UniProt P08913).
T5 sequence (P08913 whole entry): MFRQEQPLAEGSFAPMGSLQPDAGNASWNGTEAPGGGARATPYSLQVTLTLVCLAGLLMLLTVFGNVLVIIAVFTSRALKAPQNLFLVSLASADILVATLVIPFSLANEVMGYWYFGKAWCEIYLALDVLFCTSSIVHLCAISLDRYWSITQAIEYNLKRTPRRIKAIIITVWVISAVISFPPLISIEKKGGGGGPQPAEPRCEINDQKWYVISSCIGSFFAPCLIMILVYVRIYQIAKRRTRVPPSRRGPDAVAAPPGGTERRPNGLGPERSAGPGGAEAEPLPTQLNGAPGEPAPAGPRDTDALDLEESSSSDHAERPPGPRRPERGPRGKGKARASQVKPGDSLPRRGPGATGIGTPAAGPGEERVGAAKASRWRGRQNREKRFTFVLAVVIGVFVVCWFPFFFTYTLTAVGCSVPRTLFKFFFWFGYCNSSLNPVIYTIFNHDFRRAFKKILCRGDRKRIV
The format is functional, cell-based.
Further: assay procedure not described here.

5-hydroxytryptamine receptor 2B, sequence (P41595 whole entry): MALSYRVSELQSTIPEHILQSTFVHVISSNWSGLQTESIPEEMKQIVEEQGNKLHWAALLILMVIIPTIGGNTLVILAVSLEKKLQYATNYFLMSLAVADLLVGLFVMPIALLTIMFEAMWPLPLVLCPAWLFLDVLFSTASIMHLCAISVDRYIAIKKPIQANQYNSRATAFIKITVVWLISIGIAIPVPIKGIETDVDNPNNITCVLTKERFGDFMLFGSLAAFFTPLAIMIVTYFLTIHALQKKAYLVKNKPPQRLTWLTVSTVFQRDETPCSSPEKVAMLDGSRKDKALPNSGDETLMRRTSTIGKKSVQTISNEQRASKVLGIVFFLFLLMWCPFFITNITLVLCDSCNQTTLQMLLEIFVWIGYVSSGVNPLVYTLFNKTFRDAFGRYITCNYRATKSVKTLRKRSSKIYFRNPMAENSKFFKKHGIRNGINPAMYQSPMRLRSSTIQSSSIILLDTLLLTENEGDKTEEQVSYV
Adenosine receptor A2a, sequence (P29274 whole entry): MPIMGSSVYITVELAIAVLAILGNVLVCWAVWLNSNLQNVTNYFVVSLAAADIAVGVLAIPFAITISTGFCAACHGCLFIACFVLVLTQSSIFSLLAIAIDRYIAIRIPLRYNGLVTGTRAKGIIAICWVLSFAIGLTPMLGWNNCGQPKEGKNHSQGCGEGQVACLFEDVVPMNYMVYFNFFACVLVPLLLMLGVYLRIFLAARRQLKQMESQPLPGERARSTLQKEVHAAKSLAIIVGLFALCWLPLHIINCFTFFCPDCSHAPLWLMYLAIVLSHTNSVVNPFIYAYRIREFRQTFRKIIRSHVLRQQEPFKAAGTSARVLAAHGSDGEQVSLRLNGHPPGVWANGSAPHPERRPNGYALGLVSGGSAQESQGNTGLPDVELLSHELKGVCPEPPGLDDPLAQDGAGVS
Melanocortin receptor 3, sequence (P41968 whole entry): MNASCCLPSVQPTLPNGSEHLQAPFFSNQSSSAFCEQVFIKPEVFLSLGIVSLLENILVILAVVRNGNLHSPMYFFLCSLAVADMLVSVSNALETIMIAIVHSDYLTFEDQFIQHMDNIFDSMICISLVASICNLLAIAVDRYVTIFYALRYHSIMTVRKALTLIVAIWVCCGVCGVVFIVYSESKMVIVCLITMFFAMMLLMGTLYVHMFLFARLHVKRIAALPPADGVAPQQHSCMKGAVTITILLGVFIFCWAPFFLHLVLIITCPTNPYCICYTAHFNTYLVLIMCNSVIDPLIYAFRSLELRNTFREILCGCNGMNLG
3',5'-cyclic-AMP phosphodiesterase 4D, sequence (Q08499 whole entry): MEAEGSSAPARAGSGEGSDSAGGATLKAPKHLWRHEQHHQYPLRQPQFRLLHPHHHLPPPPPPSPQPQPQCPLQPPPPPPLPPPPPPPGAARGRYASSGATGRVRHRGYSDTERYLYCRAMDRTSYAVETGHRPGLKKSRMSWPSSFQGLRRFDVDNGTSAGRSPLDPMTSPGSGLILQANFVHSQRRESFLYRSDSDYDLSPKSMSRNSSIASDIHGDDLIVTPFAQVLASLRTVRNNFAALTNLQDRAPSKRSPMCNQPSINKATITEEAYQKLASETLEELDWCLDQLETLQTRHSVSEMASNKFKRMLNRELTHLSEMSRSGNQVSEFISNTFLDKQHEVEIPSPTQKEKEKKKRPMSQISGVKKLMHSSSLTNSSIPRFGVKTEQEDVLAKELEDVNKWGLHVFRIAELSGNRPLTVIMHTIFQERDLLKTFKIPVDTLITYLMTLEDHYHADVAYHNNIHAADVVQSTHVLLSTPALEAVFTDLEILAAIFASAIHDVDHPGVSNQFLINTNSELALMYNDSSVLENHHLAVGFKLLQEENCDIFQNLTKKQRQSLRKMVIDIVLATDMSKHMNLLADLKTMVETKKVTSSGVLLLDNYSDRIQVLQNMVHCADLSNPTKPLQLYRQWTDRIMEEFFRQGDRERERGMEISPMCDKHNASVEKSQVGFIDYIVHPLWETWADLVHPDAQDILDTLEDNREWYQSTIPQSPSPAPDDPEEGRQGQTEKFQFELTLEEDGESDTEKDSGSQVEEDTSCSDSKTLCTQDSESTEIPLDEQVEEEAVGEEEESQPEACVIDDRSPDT
Sodium-dependent noradrenaline transporter, sequence (P23975 whole entry): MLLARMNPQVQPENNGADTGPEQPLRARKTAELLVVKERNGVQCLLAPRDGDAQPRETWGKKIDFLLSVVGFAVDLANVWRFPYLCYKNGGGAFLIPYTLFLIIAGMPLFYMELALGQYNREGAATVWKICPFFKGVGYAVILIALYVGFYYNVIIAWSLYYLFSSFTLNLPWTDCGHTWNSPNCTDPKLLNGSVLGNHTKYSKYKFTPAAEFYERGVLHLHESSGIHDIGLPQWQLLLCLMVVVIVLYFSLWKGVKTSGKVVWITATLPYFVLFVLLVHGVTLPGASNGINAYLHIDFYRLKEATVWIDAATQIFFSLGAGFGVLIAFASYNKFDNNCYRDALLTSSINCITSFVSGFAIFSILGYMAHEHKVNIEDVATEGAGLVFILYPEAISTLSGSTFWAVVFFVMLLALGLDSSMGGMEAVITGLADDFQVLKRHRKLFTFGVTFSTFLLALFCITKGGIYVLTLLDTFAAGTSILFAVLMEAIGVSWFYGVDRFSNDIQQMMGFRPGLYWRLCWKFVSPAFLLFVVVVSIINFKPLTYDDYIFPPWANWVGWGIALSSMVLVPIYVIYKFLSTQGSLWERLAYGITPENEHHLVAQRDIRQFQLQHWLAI
Bile salt export pump, sequence (O95342 whole entry): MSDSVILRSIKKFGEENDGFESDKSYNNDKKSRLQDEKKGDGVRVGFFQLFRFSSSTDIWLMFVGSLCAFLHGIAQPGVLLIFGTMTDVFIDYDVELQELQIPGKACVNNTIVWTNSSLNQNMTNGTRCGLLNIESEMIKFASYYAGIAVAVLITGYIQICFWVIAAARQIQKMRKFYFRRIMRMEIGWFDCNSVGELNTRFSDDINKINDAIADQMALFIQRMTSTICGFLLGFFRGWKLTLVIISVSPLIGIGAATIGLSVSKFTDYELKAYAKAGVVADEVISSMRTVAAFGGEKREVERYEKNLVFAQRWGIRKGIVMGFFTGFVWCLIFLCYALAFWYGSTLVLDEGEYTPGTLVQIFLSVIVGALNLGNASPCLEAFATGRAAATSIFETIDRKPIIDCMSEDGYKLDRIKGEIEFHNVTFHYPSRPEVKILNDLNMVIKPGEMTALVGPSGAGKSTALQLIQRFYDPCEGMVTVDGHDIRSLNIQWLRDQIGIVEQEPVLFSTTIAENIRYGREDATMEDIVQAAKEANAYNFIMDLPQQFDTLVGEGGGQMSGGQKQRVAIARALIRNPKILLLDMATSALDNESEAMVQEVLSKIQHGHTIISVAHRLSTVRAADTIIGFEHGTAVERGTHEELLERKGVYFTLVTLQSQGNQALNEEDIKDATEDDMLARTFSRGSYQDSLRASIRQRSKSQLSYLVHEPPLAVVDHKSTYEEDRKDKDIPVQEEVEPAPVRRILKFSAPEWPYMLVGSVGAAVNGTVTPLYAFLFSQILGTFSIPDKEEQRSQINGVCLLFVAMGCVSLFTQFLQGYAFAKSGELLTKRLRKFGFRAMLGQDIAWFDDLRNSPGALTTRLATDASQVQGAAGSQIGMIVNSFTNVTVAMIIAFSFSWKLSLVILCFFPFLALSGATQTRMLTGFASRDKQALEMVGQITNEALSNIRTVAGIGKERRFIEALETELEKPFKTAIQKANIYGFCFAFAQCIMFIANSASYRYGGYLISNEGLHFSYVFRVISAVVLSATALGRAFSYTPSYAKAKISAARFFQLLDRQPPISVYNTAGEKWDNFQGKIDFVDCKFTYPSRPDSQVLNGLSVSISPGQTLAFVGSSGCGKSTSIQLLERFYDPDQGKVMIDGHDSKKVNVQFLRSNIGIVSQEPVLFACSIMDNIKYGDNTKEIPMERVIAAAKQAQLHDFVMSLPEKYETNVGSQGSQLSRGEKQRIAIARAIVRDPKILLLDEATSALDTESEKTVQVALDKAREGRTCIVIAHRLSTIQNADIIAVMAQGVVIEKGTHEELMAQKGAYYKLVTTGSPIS
Delta-type opioid receptor, sequence (P41143 whole entry): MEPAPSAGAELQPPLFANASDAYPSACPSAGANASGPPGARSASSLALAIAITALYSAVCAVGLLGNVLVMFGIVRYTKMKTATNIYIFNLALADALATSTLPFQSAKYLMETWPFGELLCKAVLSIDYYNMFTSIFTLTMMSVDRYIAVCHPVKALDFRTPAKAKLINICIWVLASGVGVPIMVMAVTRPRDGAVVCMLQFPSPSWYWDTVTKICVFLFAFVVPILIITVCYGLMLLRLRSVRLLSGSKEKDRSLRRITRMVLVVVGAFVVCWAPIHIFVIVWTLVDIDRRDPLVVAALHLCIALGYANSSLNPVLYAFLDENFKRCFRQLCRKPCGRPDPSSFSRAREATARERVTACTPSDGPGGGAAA
D(1A) dopamine receptor, sequence (P21728 whole entry): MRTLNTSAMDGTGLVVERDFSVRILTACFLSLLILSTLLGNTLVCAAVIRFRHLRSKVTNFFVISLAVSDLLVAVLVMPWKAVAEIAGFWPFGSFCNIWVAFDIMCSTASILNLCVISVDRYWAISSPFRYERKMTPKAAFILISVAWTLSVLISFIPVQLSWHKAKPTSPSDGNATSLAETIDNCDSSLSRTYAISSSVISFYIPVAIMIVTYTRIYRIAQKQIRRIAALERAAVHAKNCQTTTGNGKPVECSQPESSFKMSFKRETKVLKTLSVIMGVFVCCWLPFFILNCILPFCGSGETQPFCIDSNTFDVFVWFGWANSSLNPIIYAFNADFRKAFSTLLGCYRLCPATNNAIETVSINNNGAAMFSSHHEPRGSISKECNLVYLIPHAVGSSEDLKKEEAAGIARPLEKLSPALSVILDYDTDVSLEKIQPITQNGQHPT

By AC50 is commonly meant the concentration at which the activity in the assay is half-maximal. On to `CCOCC(O)COc1ccc(NC(=O)CC[S+](C)C)cc1` (centres undefined), for which the concentration at half-maximal activity (AC50) in assay [1], in [2], in assay [3], in [4], in assay [5] and in [6] was more than 30 µM each time. Also, the AC50 was more than 30 µM in assay [7]; more than 30 µM in assay [8]; more than 30 µM in [9]; more than 30 µM in assay [10]; more than 30 µM in [11]; more than 300 µM in assay [12]. The half-maximal activity concentration (AC50) in assay [13] is more than 30 µM.

Consider `CCOC(=O)[C@H](CCc1ccccc1)N[C@@H](C)C(=O)N1Cc2ccccc2C[C@H]1C(=O)O`, for which the AC50 was more than 10 µM in assay [1]; more than 10 µM in assay [2]; more than 30 µM in [3]; more than 10 µM in assay [4]; more than 30 µM in assay [5]; more than 10 µM in assay [6]. For the same compound, the AC50 is more than 10 µM in assay [7]; more than 10 µM in assay [8]; more than 30 µM in assay [9]; more than 10 µM in assay [10]; more than 10 µM in [11]; 100 µM in [12]. The compound also showed a half-maximal activity concentration (AC50) in assay [13] of more than 10 µM.

As to `CCC[C@@]1(CCc2ccccc2)CC(O)=C([C@H](CC)c2cccc(NS(=O)(=O)c3ccc(C(F)(F)F)cn3)c2)C(=O)O1`, the AC50 in [1] is more than 30 µM; in assay [2] it was more than 30 µM; in [3], more than 30 µM; in [4] it was 25 µM; in assay [5], more than 30 µM; in assay [6] it was 29 µM. The half-maximal activity concentration (AC50) in assay [7] was 16 µM; in assay [8], more than 30 µM; in [9], more than 30 µM; in assay [10], more than 30 µM; in [11], 7.5 µM; in [12], 3.2 µM. Further, the half-maximal activity concentration (AC50) in assay [13] is more than 30 µM.

As to `C=CC1=C(C(=O)O)N2C(=O)[C@@H](NC(=O)/C(=N\O)c3csc(N)n3)[C@H]2SC1`, the AC50 is more than 30 µM in assay [1]; more than 10 µM in [2]; more than 30 µM in assay [3]; more than 10 µM in [4]; more than 30 µM in assay [5]; more than 30 µM in assay [6]. For the same compound, the AC50 is more than 30 µM in assay [7]; more than 30 µM in assay [8]; more than 30 µM in assay [9]; more than 10 µM in [10]; more than 10 µM in assay [11]; more than 300 µM in assay [12]. The AC50 in [13] is more than 10 µM.

For `O=C(O)COC(=O)Cc1ccccc1Nc1c(Cl)cccc1Cl` [ACECLOFENAC], the AC50 was more than 30 µM in [1]; more than 10 µM in assay [2]; more than 30 µM in assay [3]; more than 10 µM in assay [4]; more than 30 µM in [5]; more than 30 µM in assay [6]. In addition, the AC50 was more than 30 µM in [7]; more than 30 µM in assay [8]; more than 30 µM in assay [9]; more than 10 µM in assay [10]; more than 10 µM in assay [11]; 130 µM in [12]. For the same compound, the concentration at half-maximal activity (AC50) in assay [13] was more than 10 µM.

Take `CN(C)CCc1c[nH]c2ccc(CS(=O)(=O)N3CCCC3)cc12` [ALMOTRIPTAN]: the AC50 in assay [1] is more than 30 µM; in assay [2] it was 25 µM; in assay [3] it was more than 30 µM; in [4] it was more than 30 µM; in assay [5], more than 30 µM; in [6], more than 30 µM. For the same compound, the AC50 in assay [7] was more than 30 µM; in assay [8], more than 30 µM; in [9], more than 30 µM; in [10] it was more than 30 µM; in assay [11], more than 30 µM; in [12], more than 300 µM. This compound also came in with an AC50 in assay [13] of more than 30 µM.

As for `CC[N+](CC)(CCNC(=O)C(=O)NCC[N+](CC)(CC)Cc1ccccc1Cl)Cc1ccccc1Cl` [AMBENONIUM], the AC50 is more than 30 µM in assay [1]; more than 30 µM in assay [2]; more than 30 µM in assay [3]; 2.5 µM in assay [4]; more than 30 µM in assay [5]; more than 30 µM in [6]. Moreover, the AC50 is more than 30 µM in [7]; 10 µM in assay [8]; more than 30 µM in assay [9]; more than 30 µM in assay [10]; more than 30 µM in assay [11]; more than 300 µM in [12]. The same compound registered a concentration at half-maximal activity (AC50) in [13] of more than 30 µM.

Turning to `NCCCNCCSP(=O)(O)O` [AMIFOSTINE], the AC50 in assay [1], in assay [2], in assay [3], in assay [4], in assay [5] and in assay [6] was more than 30 µM in each case. Also, the half-maximal activity concentration (AC50) in [7] is more than 30 µM; in assay [8], more than 30 µM; in assay [9], more than 30 µM; in [10], more than 30 µM; in [11], more than 30 µM; in [12] it was more than 300 µM. The compound further returned a half-maximal activity concentration (AC50) in [13] of more than 30 µM.

`NCCCCCC(=O)O` [AMINOCAPROIC ACID]: the concentration at half-maximal activity (AC50) in [1] is more than 30 µM; in assay [2], more than 10 µM; in [3], more than 10 µM; in [4], more than 10 µM; in assay [5], more than 10 µM; in assay [6], more than 30 µM. Also, the concentration at half-maximal activity (AC50) is more than 30 µM in [7]; 20.4 µM in assay [8]; more than 10 µM in assay [9]; more than 10 µM in assay [10]; more than 10 µM in [11]; more than 300 µM in assay [12]. The same compound yielded an AC50 in assay [13] of more than 10 µM.

Regarding `CCN(CCO)CCCC(C)Nc1ccnc2cc(Cl)ccc12` (centres undefined) [HYDROXYCHLOROQUINE], the AC50 in [1] was more than 30 µM; in assay [2] it was more than 10 µM; in assay [3], more than 10 µM; in assay [5] it was more than 10 µM; in [6], more than 30 µM; in assay [7], more than 30 µM. Further, the AC50 in assay [8] was more than 10 µM; in assay [9] it was more than 10 µM; in assay [10], more than 10 µM; in assay [11], more than 10 µM; in [12] it was more than 300 µM; in assay [13], more than 10 µM.
